From ChEMBL document CHEMBL4425165, “Discovery of Pyrazolo[1,5-a]pyrimidine TTK Inhibitors: CFI-402257 is a Potent, Selective, Bioavailable Anticancer Agent” (ACS Med Chem Lett, 2016)
≈ marks a conversion by molar mass, not a printed value.

Experiments:
[1] = Cmax in athymic CD-1 nude mouse at 10 mg/kg, po by LC-MS/MS analysis; type: ADME, organism-based; design: dose 10 mg/kg, route oral; conditions: in vivo
[2] = Dissociation constant, pKa of the compound; type: physicochemical
MDA-MB-468 = assay: Growth inhibition of human MDA-MB-468 cells measured after 5 days by sulforhodamine B assay; type: functional; conditions: MDA-MB-468, 120 h
[3] = AUC in athymic CD-1 nude mouse at 10 mg/kg, po by LC-MS/MS analysis; type: ADME, organism-based; conditions: in vivo
[4] = Solubility of the compound at pH 7.4; type: physicochemical; conditions: buffer
OVCAR-3 = assay: Growth inhibition of human OVCAR3 cells measured after 5 days by sulforhodamine B assay; type: functional; conditions: OVCAR-3, 120 h
HCT-116 [5] = assay: Growth inhibition of human HCT116 cells measured after 5 days by sulforhodamine B assay; type: functional; conditions: HCT-116, 120 h
[6] = target: T1, Dual specificity protein kinase TTK (Homo sapiens, UniProt P33981)
T1 sequence (P33981 whole entry): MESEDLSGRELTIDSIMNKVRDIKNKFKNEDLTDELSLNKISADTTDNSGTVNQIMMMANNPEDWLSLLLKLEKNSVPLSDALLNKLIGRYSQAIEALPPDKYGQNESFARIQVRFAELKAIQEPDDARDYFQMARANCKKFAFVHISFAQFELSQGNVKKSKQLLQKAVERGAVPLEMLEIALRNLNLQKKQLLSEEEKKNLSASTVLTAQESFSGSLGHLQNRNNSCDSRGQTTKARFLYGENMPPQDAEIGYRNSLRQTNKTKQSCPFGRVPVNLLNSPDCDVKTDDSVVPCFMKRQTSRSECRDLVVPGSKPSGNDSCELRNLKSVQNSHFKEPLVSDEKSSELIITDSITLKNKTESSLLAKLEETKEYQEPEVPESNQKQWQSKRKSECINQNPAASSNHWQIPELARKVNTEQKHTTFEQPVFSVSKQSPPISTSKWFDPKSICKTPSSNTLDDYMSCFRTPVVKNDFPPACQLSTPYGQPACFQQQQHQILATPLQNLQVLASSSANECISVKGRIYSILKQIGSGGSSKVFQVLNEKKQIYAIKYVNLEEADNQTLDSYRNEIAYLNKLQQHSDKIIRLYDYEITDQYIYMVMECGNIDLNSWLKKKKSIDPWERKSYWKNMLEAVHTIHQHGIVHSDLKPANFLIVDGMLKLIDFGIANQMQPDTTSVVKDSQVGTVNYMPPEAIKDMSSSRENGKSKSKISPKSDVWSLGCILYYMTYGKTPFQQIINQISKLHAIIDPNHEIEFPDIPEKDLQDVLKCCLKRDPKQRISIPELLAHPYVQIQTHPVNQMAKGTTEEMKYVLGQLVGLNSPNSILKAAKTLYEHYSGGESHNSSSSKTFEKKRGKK

[7] = Solubility of the compound at pH 2; type: physicochemical; conditions: buffer
Cytochrome P450 3A4 = Cytochrome P450 3A4 (Homo sapiens, UniProt P08684); assay: Inhibition of CYP3A4 (unknown origin) preincubated for 10 mins followed by addition of BFC as substrate measured after 10 mins in presence of NADP by fluorescence analysis; type: ADME
Sequence of Cytochrome P450 3A4 (P08684 whole entry): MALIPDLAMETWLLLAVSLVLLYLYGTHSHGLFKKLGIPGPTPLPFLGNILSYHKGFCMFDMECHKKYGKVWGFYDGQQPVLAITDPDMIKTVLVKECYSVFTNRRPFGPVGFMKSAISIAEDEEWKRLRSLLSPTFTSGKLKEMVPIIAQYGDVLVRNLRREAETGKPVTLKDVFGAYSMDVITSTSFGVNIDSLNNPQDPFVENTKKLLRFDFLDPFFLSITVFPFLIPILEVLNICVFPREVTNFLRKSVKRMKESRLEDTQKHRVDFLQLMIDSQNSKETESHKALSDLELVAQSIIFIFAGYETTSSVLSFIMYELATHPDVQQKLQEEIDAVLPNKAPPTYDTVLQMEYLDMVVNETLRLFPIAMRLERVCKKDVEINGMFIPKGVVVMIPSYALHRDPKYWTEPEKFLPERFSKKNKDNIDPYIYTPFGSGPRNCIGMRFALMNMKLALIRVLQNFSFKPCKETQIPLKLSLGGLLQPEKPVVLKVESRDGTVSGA

[8] = Bioavailability in Sprague-Dawley rat at 5 mg/kg by LC-MS/MS analysis; type: ADME, organism-based; conditions: in vivo
[9] = AUC (0 to infinity) in Sprague-Dawley rat at 5 mg/kg, po by LC-MS/MS analysis; type: ADME, organism-based; design: dose 5 mg/kg, time infinity, route oral; conditions: in vivo
[10] = AUC (0 to infinity) in beagle dog at 5 mg/kg, po by LC-MS/MS analysis; type: ADME, organism-based, Canis lupus familiaris; design: dose 5 mg/kg, route oral, time infinity; conditions: in vivo
[11] = Bioavailability in beagle dog at 5 mg/kg by LC-MS/MS analysis; type: ADME, organism-based, Canis lupus familiaris; conditions: in vivo
[12] = Clearance in Sprague-Dawley rat at 1 mg/kg, iv or 5 mg/kg, po by LC-MS/MS analysis; type: ADME, organism-based; conditions: in vivo
HCT-116 [13] = assay: Antitumor activity against human HCT116 cells xenografted in athymic nude mouse assessed as tumor growth inhibition at 15 mg/kg, po qd measured on day 21; type: functional; conditions: HCT-116, po, 504 h, read-out: TGI
HT-29 = assay: Antitumor activity against human HT-29 cells xenografted in athymic nude mouse assessed as tumor growth inhibition at 15 mg/kg, po qd measured on day 21; type: functional; conditions: HT-29, po, 504 h, read-out: TGI
[14] = Clearance in beagle dog at 1 mg/kg, iv or 5 mg/kg, po by LC-MS/MS analysis; type: ADME, organism-based, Canis lupus familiaris; conditions: in vivo
[15] = Toxicity in po dosed athymic nude mouse; type: organism-based; conditions: in vivo

Compound	Cmax [1] [ng/mL]	pKa [2]	GI50 (MDA-MB-468) [nM]	AUC [3] [ng·h/mL]	solubility [4] [µg/mL]	GI50 (OVCAR-3) [nM]	GI50 (HCT-116 [5]) [nM]	IC50 [6] [nM]	solubility [7] [µg/mL]	IC50 (Cytochrome P450 3A4) [nM]	bioavailability [8] [%]	AUC(0-inf) [9] [ng·h/mL]	AUC(0-inf) [10] [ng·h/mL]	bioavailability [11] [%]	clearance [12] [mL/min/kg]	inhibition in vivo at 15 mg/kg (HCT-116 [13]) [%]	inhibition in vivo at 15 mg/kg (HT-29) [%]	clearance [14] [mL/min/kg]	MTD [15] [mg/kg]
Cc1cc(-c2cnn3c(NCC4CCOCC4)cc(N[C@H]4CCCC[C@H]4O)nc23)ccc1C(=O)NC1CC1	2200	3.3	3	2400	13 (≈ 25.1 µM)	9	1	2	410 (≈ 790 µM)	–	–	–	–	–	–	–	–	–	–
Cc1cc(-c2cnn3c(NCC4CCOCC4)cc(NC4CCCC4)nc23)ccc1C(=O)NC1CC1	2300	3.2	36	4000	3.1 (≈ 6.34 µM)	90	15	3.2	88 (≈ 180 µM)	–	–	–	–	–	–	–	–	–	–
Cc1cc(-c2cnn3c(NCC4CCOCC4)cc(N[C@H]4CCC[C@H]4O)nc23)ccc1C(=O)NC1CC1	1300	3.2	62	1500	23 (≈ 45.6 µM)	79	59	2.7	480 (≈ 951 µM)	–	–	–	–	–	–	–	–	–	–
Cc1cc(-c2cnn3c(NC[C@H]4C[C@H](O)C4)cc(NC4CCCC4)nc23)ccc1C(=O)NC1CC1	180	3.7	35	130	5.4 (≈ 11.4 µM)	68	14	2.4	930 (≈ 1960 µM)	–	–	–	–	–	–	–	–	–	–
Cc1cc(-c2cnn3c(NCC4CCOCC4)cc(N[C@@H](C4CC4)C(C)(C)O)nc23)ccc1C(=O)NC1CC1	5500	3.5	60	20000	10 (≈ 18.8 µM)	80	20	7	470 (≈ 882 µM)	3000	38	490	6900	98	66	70	38	13	15
Cc1cc(-c2cnn3c(NCC4CCOCC4)cc(N[C@@H]4CCCC[C@H]4O)nc23)ccc1C(=O)NC1CC1	–	3.3	180	–	13 (≈ 25.1 µM)	340	130	13	410 (≈ 790 µM)	–	–	–	–	–	–	–	–	–	–
Cc1cc(-c2cnn3c(NCC4CCOCC4)nc(NC4CCCC4)nc23)ccc1C(=O)NC1CC1	430	2.7	320	530	3.6 (≈ 7.35 µM)	480	130	5.8	28 (≈ 57.2 µM)	–	–	–	–	–	–	–	–	–	–
Cc1cc(-c2cnn3c(NCCN4CCOCC4)cc(Oc4ccccc4)nc23)ccc1C(=O)NC1CC1	1000	6.7	18	2700	1.6 (≈ 3.12 µM)	24	11	3	12000 (≈ 23400 µM)	–	–	–	–	–	–	–	–	–	–
Cc1cc(-c2cnn3c(NCC4CC4)cc(NC4CCCC[C@H]4O)nc23)ccc1C(=O)NC1CC1 (single isomer, unassigned)	1700	3.4	20	3100	5.3 (≈ 11.2 µM)	15	9	2.2	170 (≈ 358 µM)	2000	94	3700	14000	95	22	72	53	7.9	15
Cc1cc(-c2cnn3c(NCC4CCOCC4)nc(Oc4ccccc4)nc23)ccc1C(=O)NC1CC1	890	1.6	160	1500	1.1 (≈ 2.21 µM)	190	14	1.4	1.5 (≈ 3.01 µM)	–	–	–	–	–	–	–	–	–	–
CC[C@H](CO)Nc1cc(NCC2CCOCC2)n2ncc(-c3ccc(C(=O)NC4CC4)c(C)c3)c2n1	–	3.5	480	–	27 (≈ 54.8 µM)	1100	210	21	1100 (≈ 2230 µM)	–	–	–	–	–	–	–	–	–	–

Further lines, with some results ahead:

Cmax [1] [ng/mL]	pKa [2]	GI50 (MDA-MB-468) [nM]	AUC [3] [ng·h/mL]	solubility [4] [µg/mL]	GI50 (OVCAR-3) [nM]	GI50 (HCT-116 [5]) [nM]	IC50 [6] [nM]	solubility [7] [µg/mL]	Compound	IC50 (Cytochrome P450 3A4) [nM]	bioavailability [8] [%]	AUC(0-inf) [9] [ng·h/mL]	AUC(0-inf) [10] [ng·h/mL]	bioavailability [11] [%]	clearance [12] [mL/min/kg]	inhibition in vivo at 15 mg/kg (HCT-116 [13]) [%]	inhibition in vivo at 15 mg/kg (HT-29) [%]	clearance [14] [mL/min/kg]	MTD [15] [mg/kg]
560	3.4	13	3100	0.5 (≈ 1 µM)	22	3	2.5	12 (≈ 24.1 µM)	Cc1cc(-c2cnn3c(NCC4CCOCC4)cc(Oc4ccccc4)nc23)ccc1C(=O)NC1CC1	–	–	–	–	–	–	–	–	–	–
2900	3.2	57	7300	3.6 (≈ 7.37 µM)	87	14	2.6	110 (≈ 225 µM)	Cc1cc(-c2cnn3c(NC[C@H]4C[C@@](C)(O)C4)cc(NC4CCCC4)nc23)ccc1C(=O)NC1CC1	–	–	–	–	–	–	–	–	–	–
120	3.7	2	130	5.4 (≈ 11.1 µM)	11	2	1.1	930 (≈ 1920 µM)	Cc1cc(-c2cnn3c(NC[C@H]4C[C@H](O)C4)cc(Oc4cccnc4)nc23)ccc1C(=O)NC1CC1	–	–	–	–	–	–	–	–	–	–
750	3.7	19	3400	2.1 (≈ 4.1 µM)	43	17	1.8	360 (≈ 702 µM)	Cc1cc(-c2cnn3c(NC[C@H]4CC[C@@H](O)CC4)cc(Oc4cccnc4)nc23)ccc1C(=O)NC1CC1	–	–	–	–	–	–	–	–	–	–
190	3.7	160	700	2.1 (≈ 4.1 µM)	270	50	2.8	360 (≈ 702 µM)	Cc1cc(-c2cnn3c(NC[C@H]4CC[C@H](O)CC4)cc(Oc4cccnc4)nc23)ccc1C(=O)NC1CC1	–	–	–	–	–	–	–	–	–	–
–	3.2	130	–	3.6 (≈ 7.37 µM)	210	49	5.3	110 (≈ 225 µM)	Cc1cc(-c2cnn3c(NC[C@H]4C[C@](C)(O)C4)cc(NC4CCCC4)nc23)ccc1C(=O)NC1CC1	–	–	–	–	–	–	–	–	–	–
1800	3.7	71	3900	3.3 (≈ 6.62 µM)	100	40	–	560 (≈ 1120 µM)	Cc1cc(-c2cnn3c(NC[C@H]4C[C@](C)(O)C4)cc(Oc4cccnc4)nc23)ccc1C(=O)NC1CC1	–	–	–	–	–	–	–	–	–	–
